# Results reported in patent US20250387481A1, “PRE-TREATED T CELLS FOR USE AS A MEDICAMENT” (STICHTING HET NEDERLANDS KANKER INSTITUUT-ANTONI VAN …, priority 2022, published 2025).
# Columns and labels:
# KB1P organoids = assay: Co-culture of pre-treated splenic T cells with KB1P organoids (MTT, cleaved-caspase 3); assay type: cell-based, mouse; details: T cells that cannot mature nor produce a TCR response
# MMTV-PyMT organoids = assay: MTT measurement of MMTV-PyMT organoid survival upon increasing doses of docetaxel; assay type: cell-based; details: Mus musculus, docetaxel for 72 h
# Experimental: Breast cancer organoids were derived from K14-Cre; Brca1fl/fl; p53fl/fl mouse mammary tumors (KB1P (Kester, L., et al. Clin Cancer Res, 2022.)) and from MMTV-PyMT (Duarte, A. A., et al. Nat Methods, 2018. 15(2): p. 134-140) mouse mammary tumors. Both lines were cultured in 50 μl drops of Cultrex PathClear Reduced Growth Factor Basement Membrane Extract Type 2 (BME, Amsbio, 3533-005-02). KB1P organoids were cultured in Advanced Dulbecco's modified Eagle's medium (adDMEM/F12; Thermo Fisher Scientific. Cat. No. 12634-010) containing Hepes (10 mmol/L; Thermo Fisher Scientific, Cat. No. 15630-056), Penicillin/streptomycin (10,000 U/ml; Thermo Fisher Scientific, Cat. No. 15140-122), B27 (2% Thermo Fisher Scientific, Cat. No. 17504-044), N-acetylcysteine (1.25 mM; Sigma-Aldrich, Cat. No. A9165) and fibroblast growth factor (FGF, 12 ng/ml; Invitrogen, Cat. No. PHG0261). MMTV-PyMT organoids were cultured in DMEM/F12 GlutaMAX (Gibco, Cat. No 10565018) supplemented with 10 mmol/L Hepes (Gibco, Cat. No 15630106), Penicillin/streptomycin (10,000 U/ml; Thermo Fisher Scientific, Cat. No. 15140-122), B27 (2% Thermo Fisher Scientific, Cat. No. 17504-044) and fibroblast growth factor (FGF, 12 ng/ml; Invitrogen, Cat. No. PHG0261). […]
# Following co-culture, medium was removed, and cultures were washed in PBS to remove T cells. […] Plates were read with a 565 nm wavelength.
# [1] = system: MMTV-PyMT organoids expressing OVA; assay: Co-culture of OT I T cells with MMTV-PyMT organoids expressing OVA (cleaved-caspase 3); assay type: cell-based, mouse; details: OT I T cells pre-treated with docetaxel vs control
# Experimental: Experiments were approved by the Animal Welfare Committee of the Netherlands Cancer Institute and were performed in accordance with national guidelines. Mice were housed in individually ventilated cage (IVC) systems under specific pathogen-free conditions and received chow and water ad libitum. FVB/NRj females (Janvier), C57BL/6-Tg (TcraTcrb) 1100Mjb/J females (OT I mice, Jackson laboratory), and ROSA26mTmG FVB females (NKI) were used at 8-20 weeks of age at the time of fat pad injection of tumor organoids or spleen isolation.
# For T cells isolated from mouse mammary tumors, T cells were directly co-cultured with tumor organoids after FACS isolation. For T cells isolated from the spleen, T cells were treated for 72 h with PBS or with docetaxel (docetaxel 10 nmol/L), in the presence or absence of an LCKi (10 μmol/L, Merck Millipore, Cat. No. 213743-31-8). To evaluate the docetaxel-specificity of our observations, T cells were treated with paclitaxel 10 nmol/L or carboplatin 50 μmol/L for 72 h. Subsequently, T cells were collected and washed 3 times in PBS to remove residual chemotherapy or LCKi.
# Organoids were fixed in 4% paraformaldehyde in PBS for 20 min at room temperature, followed by permeabilization in 0.2% TritonX-100 in PBS for 15 min at room temperature. […]
smiles,measurement,setting,value
CC(=O)O[C@@]12CO[C@@H]1C[C@H](O)[C@@]1(C)C(=O)[C@H](O)C3=C(C)[C@@H](OC(=O)[C@H](O)[C@@H](NC(=O)OC(C)(C)C)c4ccccc4)C[C@@](O)([C@@H](OC(=O)c4ccccc4)[C@H]21)C3(C)C [docetaxel],T cell-mediated killing by T cells from NOD-SCID IL2rg-/- mice,KB1P organoids,triggered T cell-mediated killing
same,IC50,MMTV-PyMT organoids,0.13 µM
same,cytotoxicity of OT I T cells (apoptosis in OVA+ organoids),[1],further enhanced
